Values joined by “and” are separate entries in the source; they are usually repeats but may differ in a detail not shown here. Equal entries are not always repeated.
How the values were obtained:
[1] = tested on: Escherichia coli (ATCC strain 8739); experiment: Growth profile in sterile/non-sterile MSM media, streaked on MacConkey agar; assay type: cell-based; details: 5-16% MSM
Procedure: Tubes were incubated at 25° C.

[2] = tested on: Lactobacillus acidophilus; experiment: Recovery from Acidophilus milk fortified with MSM into broth without MSM; assay type: cell-based; details: for Lag Recovery of Lactobacillus acidophilus in Milk fortified with MSM Day 14 / Lag Recovery of Lactobacillus acidophilus in Milk fortified with MSM Day 21 / Lag Recovery of Lactobacillus acidophilus in Milk fortified with MSM Day 28: duplicates; for Lag Recovery of Lactobacillus acidophilus in Milk fortified with MSM Day 21 / Lag Recovery of Lactobacillus acidophilus in Milk fortified with MSM Day 28: 0.50% MSM
Procedure: The Acidophilus milk was low fat (Darigold). […] All preparations and plating was conducted at room temperature.
The recovery study was run parallel to the study done on the affects of MSM on growth of Lactobacillus acidophilus in Acidophilus milk fortified with MSM. The recovery growth rate was analyzed on Day 7, Day 14, Day 21 and Day 28. For Table 27, the growth for Day x with no time is calculated from the initial growth study with the dilution factor into the log growth. […] Table 28 takes the value of 2.00 as the starting value.

Q: How did the “Growth profile of E. coli” value ([1]; 24 hours, NS (sterile saline + non-sterile MSM), 8% MSM) turn out when Methylsulfonylmethane [MSM] was run?
A: The value was “Heavy”.

Q: What about the “Growth profile of E. coli” value ([1]; 24 hours, NS (sterile saline + non-sterile MSM), 12% MSM) of the same substance?
A: Its value is “Moderate”.

Q: And the “Growth profile of E. coli” value ([1]; 24 hours, NSA (saline + MSM, then sterilized), 8% MSM)?
A: Its value is “Heavy”.

Q: What about the “Growth profile of E. coli” value ([1]; 24 hours, NSA (saline + MSM, then sterilized), 12% MSM) of the same substance?
A: Its value is “Moderate”.

Q: What about the “Growth profile of E. coli” value ([1]; 24 hours, TSB (sterile TSB + non-sterile MSM), 8% MSM) of the same substance?
A: The value was “Heavy”.

Q: What about the “Growth profile of E. coli” value ([1]; 24 hours, TSB (sterile TSB + non-sterile MSM), 10% MSM) of the same substance?
A: Its value is “Moderate”.

Q: What about the “Growth profile of E. coli” value ([1]; 24 hours, TSB (sterile TSB + non-sterile MSM), 11% MSM) of the same substance?
A: The value was “Few”.

Q: And the “Growth profile of E. coli” value ([1]; 24 hours, TSBA (TSB + MSM, then sterilized), 8% MSM)?
A: The value was “Heavy”.

Q: And the “Growth profile of E. coli” value ([1]; 24 hours, TSBA (TSB + MSM, then sterilized), 10% MSM)?
A: The value was “Moderate”.

Q: What about the “Growth profile of E. coli” value ([1]; 24 hours, TSBA (TSB + MSM, then sterilized), 11% MSM) of the same substance?
A: The value was “Few”.

Q: And the “Growth profile of E. coli” value ([1]; 48 hours, NS, 8% MSM)?
A: Its value is “Heavy”.

Q: What about the “Growth profile of E. coli” value ([1]; 48 hours, NS, 12% MSM) of the same substance?
A: Its value is “Moderate”.

Q: What about the “Growth profile of E. coli” value ([1]; 48 hours, NSA, 8% MSM) of the same substance?
A: Its value is “Heavy”.

Q: And the “Growth profile of E. coli” value ([1]; 48 hours, NSA, 12% MSM)?
A: Its value is “Moderate”.

Q: And the “Growth profile of E. coli” value ([1]; 48 hours, TSB, 8% MSM)?
A: Its value is “Heavy”.

Q: And the “Growth profile of E. coli” value ([1]; 48 hours, TSB, 11% MSM)?
A: The value was “Moderate”.

Q: What about the “Growth profile of E. coli” value ([1]; 48 hours, TSB, 12% MSM) of the same substance?
A: Its value is “Few”.

Q: What about the “Growth profile of E. coli” value ([1]; 48 hours, TSBA, 8% MSM) of the same substance?
A: The value was “Heavy”.

Q: What about the “Growth profile of E. coli” value ([1]; 48 hours, TSBA, 11% MSM) of the same substance?
A: The value was “Moderate”.

Q: And the “Growth profile of E. coli” value ([1]; 48 hours, TSBA, 12% MSM)?
A: Its value is “Few”.

Q: And the “Growth profile of E. coli” value ([1]; 72 hours, NS, 8% MSM)?
A: Its value is “Heavy”.

Q: What about the “Growth profile of E. coli” value ([1]; 72 hours, NS, 12% MSM) of the same substance?
A: Its value is “Moderate”.

Q: What about the “Growth profile of E. coli” value ([1]; 72 hours, NSA, 8% MSM) of the same substance?
A: Its value is “Heavy”.

Q: And the “Growth profile of E. coli” value ([1]; 72 hours, NSA, 12% MSM)?
A: The value was “Moderate”.

Q: And the “Growth profile of E. coli” value ([1]; 72 hours, TSB, 8% MSM)?
A: The value was “Heavy”.

Q: What about the “Growth profile of E. coli” value ([1]; 72 hours, TSB, 11% MSM) of the same substance?
A: The value was “Moderate”.

Q: What about the “Growth profile of E. coli” value ([1]; 72 hours, TSB, 12% MSM) of the same substance?
A: The value was “Few”.

Q: What about the “Growth profile of E. coli” value ([1]; 72 hours, TSBA, 8% MSM) of the same substance?
A: The value was “Heavy”.

Q: What about the “Growth profile of E. coli” value ([1]; 72 hours, TSBA, 11% MSM) of the same substance?
A: Its value is “Moderate”.

Q: What about the “Growth profile of E. coli” value ([1]; 72 hours, TSBA, 12% MSM) of the same substance?
A: The value was “Few”.

Q: And the “Recovery of Lactobacillus acidophilus in Milk fortified with MSM Day 7, initial start data” value ([2]; 0.5% MSM)?
A: Its value is 8.68 logs.

Q: What about the “Recovery of Lactobacillus acidophilus in Milk fortified with MSM Day 7, average recovery” value (from here on “Recovery … with MSM Day 7, average recovery”) ([2]; 0.5% MSM, Day 7-24) of the same substance?
A: The value was 12.94 logs.

Q: And the “Recovery … with MSM Day 7, average recovery” value ([2]; 0.5% MSM, Day 7-48)?
A: The value was 12.69 logs.

Q: What about the “Recovery … with MSM Day 7, average recovery” value ([2]; 0.5% MSM, Day 7-72) of the same substance?
A: The value was 13.07 logs.

Q: And the “Recovery of Lactobacillus acidophilus in Milk fortified with MSM Day 14, initial start data” value ([2]; 0.5% MSM, Day 14-0)?
A: Its value is 4.22 logs.

Q: And the “Recovery of Lactobacillus acidophilus in Milk fortified with MSM Day 14, average recovery” value (“Recovery … with MSM Day 14, average recovery” below) ([2]; 0.5% MSM, Day 14-24)?
A: The value was 10.15 logs.

Q: What about the “Lag Recovery of Lactobacillus acidophilus in Milk fortified with MSM Day 14” value (from here on “Lag Recovery … with MSM Day 14”) ([2]; 0.5% MSM, Day 14-24) of the same substance?
A: Its value is 10.19 logs and 10.10 logs.

Q: And the “Recovery … with MSM Day 14, average recovery” value ([2]; 0.5% MSM, Day 14-48)?
A: The value was 12.84 logs.

Q: What about the “Lag Recovery … with MSM Day 14” value ([2]; 0.5% MSM, Day 14-48) of the same substance?
A: The value was 12.95 logs and 12.72 logs.

Q: What about the “Recovery … with MSM Day 14, average recovery” value ([2]; 0.5% MSM, Day 14-72) of the same substance?
A: The value was 12.86 logs.

Q: What about the “Lag Recovery … with MSM Day 14” value ([2]; 0.5% MSM, Day 14-72) of the same substance?
A: Its value is 13.02 logs and 12.70 logs.

Q: What about the “Recovery of Lactobacillus acidophilus in Milk fortified with MSM Day 21, initial start data” value ([2]; 0.5% MSM, Day 21) of the same substance?
A: The value was 3.37 logs.

Q: And the “Recovery of Lactobacillus acidophilus in Milk fortified with MSM Day 21, average recovery” value (“Recovery … with MSM Day 21, average recovery” for short) ([2]; 0.5% MSM, Day 21-24)?
A: Its value is 12.91 logs.

Q: And the “Lag Recovery of Lactobacillus acidophilus in Milk fortified with MSM Day 21” value (shortened to “Lag Recovery … with MSM Day 21”) ([2]; Day 21-24)?
A: The value was 12.89 logs and 12.93 logs.

Q: And the “Recovery … with MSM Day 21, average recovery” value ([2]; 0.5% MSM, Day 21-48)?
A: The value was 13.02 logs.

Q: What about the “Lag Recovery … with MSM Day 21” value ([2]; Day 21-48) of the same substance?
A: The value was 12.94 logs and 13.1 logs.

Q: And the “Recovery … with MSM Day 21, average recovery” value ([2]; 0.5% MSM, Day 21-72)?
A: Its value is 11.30 logs.

Q: And the “Lag Recovery … with MSM Day 21” value ([2]; Day 21-72)?
A: The value was 12.29 logs and 10.31 logs.

Q: What about the “Recovery of Lactobacillus acidophilus in Milk fortified with MSM Day 28, initial start data” value ([2]; 0.5% MSM, Day 28) of the same substance?
A: The value was 1.00 logs.

Q: What about the “Recovery of Lactobacillus acidophilus in Milk fortified with MSM Day 28, average recovery” value (from here on “Recovery … with MSM Day 28, average recovery”) ([2]; 0.5% MSM, Day 28-24) of the same substance?
A: Its value is 6.29 logs.

Q: What about the “Lag Recovery of Lactobacillus acidophilus in Milk fortified with MSM Day 28” value (shortened to “Lag Recovery … with MSM Day 28”) ([2]; Day 28-24) of the same substance?
A: Its value is 6.11 logs and 6.47 logs.

Q: What about the “Recovery … with MSM Day 28, average recovery” value ([2]; 0.5% MSM, Day 28-48) of the same substance?
A: Its value is 13.33 logs.

Q: And the “Lag Recovery … with MSM Day 28” value ([2]; Day 28-48)?
A: The value was 13.66 logs and 12.99 logs.

Q: And the “Recovery … with MSM Day 28, average recovery” value ([2]; 0.5% MSM, Day 28-72)?
A: The value was 13.00 logs.

Q: And the “Lag Recovery … with MSM Day 28” value ([2]; Day 28-72)?
A: The value was 12.99 logs and 13.01 logs.

Q: What about the “Day 7 log recovery growth rate increase from start time of zero” value (from here on “Day 7 log recovery growth rate increase”) ([2]; 0.5% MSM, Hour 0) of the same substance?
A: The value was 0.00 logs.

Q: What about the “Day 14 log recovery growth rate increase from start time of zero” value (shortened to “Day 14 log recovery growth rate increase”) ([2]; 0.5% MSM, Hour 0) of the same substance?
A: Its value is 0.00 logs.

Q: And the “Day 21 log recovery growth rate increase from start time of zero” value (“Day 21 log recovery growth rate increase” for short) ([2]; 0.5% MSM, Hour 0)?
A: Its value is 0.00 logs.

Q: And the “Day 7 log recovery growth rate increase” value ([2]; 0.5% MSM, Hour 24)?
A: Its value is 4.26 logs.

Q: What about the “Day 14 log recovery growth rate increase” value ([2]; 0.5% MSM, Hour 24) of the same substance?
A: The value was 5.93 logs.

Q: What about the “Day 21 log recovery growth rate increase” value ([2]; 0.5% MSM, Hour 24) of the same substance?
A: Its value is 9.54 logs.

Q: What about the “Day 7 log recovery growth rate increase” value ([2]; 0.5% MSM, Hour 48) of the same substance?
A: Its value is −0.26 logs.

Q: What about the “Day 14 log recovery growth rate increase” value ([2]; 0.5% MSM, Hour 48) of the same substance?
A: Its value is 2.69 logs.

Q: What about the “Day 21 log recovery growth rate increase” value ([2]; 0.5% MSM, Hour 48) of the same substance?
A: The value was 0.11 logs.

Q: And the “Day 7 log recovery growth rate increase” value ([2]; 0.5% MSM, Hour 72)?
A: The value was 0.39 logs.

Q: What about the “Day 14 log recovery growth rate increase” value ([2]; 0.5% MSM, Hour 72) of the same substance?
A: Its value is 0.03 logs.

Q: What about the “Day 21 log recovery growth rate increase” value ([2]; 0.5% MSM, Hour 72) of the same substance?
A: The value was −1.72 logs.

Q: And the “Day 28 log recovery growth rate increase from start time of zero” value (“Day 28 log recovery growth rate increase” below) ([2]; 0.5% MSM, Time 0)?
A: The value was 0.00 logs.

Q: And the “Day 28 log recovery growth rate increase” value ([2]; 0.5% MSM, Time 24)?
A: The value was 5.29 logs.

Q: And the “Day 28 log recovery growth rate increase” value ([2]; 0.5% MSM, Time 48)?
A: Its value is 7.04 logs.

Q: And the “Day 28 log recovery growth rate increase” value ([2]; 0.5% MSM, Time 72)?
A: The value was −0.32 logs.

Q: What about the “Recovery of Lactobacillus acidophilus in Milk fortified with MSM Day 7, initial start data” value ([2]; 5.0% MSM) of the same substance?
A: The value was 8.71 logs.

Q: What about the “Recovery … with MSM Day 7, average recovery” value ([2]; 5.0% MSM, Day 7-24) of the same substance?
A: Its value is 12.71 logs.

— patent publication US20110105623A1 (Biogenic Innovations, LLC, priority 2009, published 2011)
